Test results published in US6297250A, “Pyrimidopyrimidine compounds” (Newcastle University Ventures Limited, priority 1997, dated 2001).
Values joined by “and” are separate entries in the source; they are usually repeats but may differ in a detail not shown here. Equal values may be shown once. Read-outs that look alike come from different tables or passages of the source. Values belong to the compound of their own block, whether it stands above or below them.

Tested on: L1210 cells
Assay: Nucleoside transport inhibition assay: inhibition of 3H-thymidine uptake, with or without AGP or HSA
Format: cell-based, murine
Conditions: for inhibition at 1 µM: L1210, 1 μM compound; for inhibition at 10 µM: L1210, 10 μM compound; for Effect of AGP on the inhibition of thymidine uptake: in words; for inhibition at 100 µM: L1210, 100 μM compound; for inhibition at 0.1 µM: L1210, 0.1 μM compound; for inhibition at 0.25 µM: L1210, 0.25 μM compound
Experimental: In vitro activity. […] For testing the compounds an established nucleoside transport assay involving measurement of thymidine uptake was adapted. Murine leukaemia L1210 cells were used in this assay as their nucleoside transport characteristics are well known. This assay for measuring thymidine uptake used a modification of the rapid mixing technique of Wohleheuter, R. […] Materials used included a transport buffer comprising 130 mM NaCl, 5 mM KC1, 1 mM MgCl, 5 mM NaH2 PO4, 10 mM glucose and 10 mM HEPES. This buffer was made up as sterile 5× concentrate and reconstituted in distilled water and adjusted to pH 7.4 immediately prior to carrying out the assay. […] The supernatant was aspirated and the cells were washed with ice-cold transport buffer and centrifuged again at 1000 rpm for 5 minutes at 4° C. The supernatant was removed and the cells were resuspended in ice-cold transport buffer to give a final cell density of 2-4×10^7 cells/mi. Cells were left on ice for 30 minutes recovery prior to starting the assay. […] The suspension was mixed well and 100 μl was layered onto 150 μl silicone oil (9:11 Dow Corning 556 (Sp.Gr. 0.98):Dow Corning 550 (Sp.Gr. 1.068) (final Sp.Gr. 1.028) overlaying 50 μl 3M KOH in 6 replicate 0.5 ml microfuge tubes. […] The tubes were immediately transferred to a microfuge (Eppendorf) and spun at 12000 rpm for 2 minutes to pellet the cells through the oil and into the KOH. The tubes were capped and the cells left to solubilise in the KOH for 1 hour. Cell number and viability for each run was determined by haemocytometer counting using trypan blue exclusion. […] The tubes were capped and cut in the oil layer such that the bottom portion (cells solubilised in KOH) fell into a 20 ml scintillation vial. 1 ml 0.25M acetic acid followed by 1 ml air was injected into the tube using a 2 ml syringe and 23-gauge needle to disperse and neutralise the KOH-solubilisedcells. 10 ml of Optiphase HiSafe™ scintillant was added and the vials capped and shaken. […] The [^14 C]:[^3 H] ratio was used to calculate the amount of non-transported contaminating [^3 H]thymidine in the extracellular space.

[1] = Mus musculus, no AGP, read-out: % Inhibition of 3H-thymidine uptake, No AGP
[2] = Mus musculus, no AGP, 5% DMSO, read-out: % Inhibition of 3H-thymidine uptake, No AGP (5% DMSO)
[3] = Mus musculus, +5 mg/ml AGP vs no AGP, read-out: % Reduction (of inhibition by AGP)
[4] = Mus musculus, +5 mg/ml AGP, read-out: % Inhibition of 3H-thymidine uptake, +5 mg/ml AGP
[5] = 0.1 μM compound, no AGP, 0.1 µM
[6] = +5 mg/ml AGP, compound concentration not assignable from the table

IC50 (Mus musculus, L1210, no AGP): 2400 nM
SMILES: COCCOc1nc(NCc2ccccc2)c2nc(OCCOC)nc(NCc3ccccc3)c2n1 [NU3095, 2,6-di(-2-methoxyethoxy)-4,8-dibenzylaminopyrimidopyrimidine]
inhibition at 1 µM [1]: 31.2% | inhibition at 10 µM [1]: 78.4 ± 4.2%

IC50 (Mus musculus, L1210, no AGP): 1110 nM
SMILES: OCCN(CCO)c1nc(NCc2ccc(Cl)cc2)c2nc(N(CCO)CCO)nc(NCc3ccc(Cl)cc3)c2n1 [NU3083, 2,6-bis(Diethanolamino)-4,8-di[(4'-chlorobenzyl)amino]pyrimido pyrimidine]
inhibition at 1 µM [1]: 53 ± 15% | inhibition at 10 µM [1]: 92 ± 14%

IC50 (Mus musculus, L1210, no AGP): 250 nM
SMILES: COc1ccc(CNc2nc(N(CCO)CCO)nc3c(NCc4ccc(OC)c(OC)c4)nc(N(CCO)CCO)nc23)cc1OC [NU3084, 2,6-bis(Diethanolamino)-4,8-bis[(3',4'-dimethoxybenzyl)amino]pyrimidopyrimidine]
% Inhibition of 3H-thymidine uptake, No AGP (1 μM compound, no AGP, 1 µM): 67 ± 10% | inhibition at 1 µM [3]: 4% | inhibition at 1 µM [4]: 64 ± 3% | inhibition at 1 µM [1]: 74 ± 16% | inhibition at 10 µM [3]: 5% | inhibition at 10 µM [4]: 93 ± 10% | inhibition at 10 µM [1]: 98 ± 5% | Effect of AGP on the inhibition of thymidine uptake: no significant reduction | Potency as inhibitor relative to dipyridamole (presence and absence of AGP, or of 40 mg/ml human serum albumin): more potent inhibitors than dipyridamole

IC50 (Mus musculus, L1210, no AGP): 460 nM | IC50 (no AGP): 820 nM
SMILES: COc1ccc(CNc2nc(OCCCO)nc3c(NCc4ccc(OC)cc4)nc(OCCCO)nc23)cc1 [NU3097, 2,6-di(-3-hydroxypropoxy)-4,8-di(-4-methoxybenzylamino)pyrimidopyrimidine]
% Inhibition of 3H-thymidine uptake, No AGP (1 μM compound, no AGP, 1 µM): 62% | inhibition at 1 µM [3]: 21% | inhibition at 1 µM [4]: 49% | inhibition at 1 µM [1]: 61 ± 8%

IC50 (no AGP): 220 nM and 240 nM
SMILES: COc1ccc(CN(C)c2nc(OCCCO)nc3c(N(C)Cc4ccc(OC)cc4)nc(OCCCO)nc23)cc1 [NU3090, 2,6-Di(3'-hydroxypropoxy)-4,8-di[(N-4'-methoxybenzylmethyl)amino]pyrimidopyrimidine]
% Reduction (of inhibition by AGP) (1 μM compound, +5 mg/ml AGP vs no AGP): 53% | % Inhibition of 3H-thymidine uptake, +5 mg/ml AGP (1 μM compound, +5 mg/ml AGP, 1 µM): 32 ± 10% and 32% | % Inhibition of 3H-thymidine uptake, No AGP (1 μM compound, no AGP, 1 µM): 74 ± 18% and 69 ± 19% | % Inhibition of 3H-thymidine uptake, No AGP (10 μM compound, no AGP): 100 ± 0%

IC50 (Mus musculus, L1210, no AGP): 930 nM | IC50 (no AGP): 1200 nM
SMILES: COc1ccc(CNc2nc(NCCO)nc3c(NCc4ccc(OC)cc4)nc(NCCO)nc23)cc1 [NU3099, 2,6-Di-(2-hydroxyethyl)amino-4,8-di-[4-methoxybenzyl]-aminopyrimidopyrimidine]
% Inhibition of 3H-thymidine uptake, No AGP (1 μM compound, no AGP, 1 µM): 52% and 62% and 65% | % Inhibition of 3H-thymidine uptake, +5 mg/ml AGP [6]: 30% and 35% | inhibition at 0.1 µM (Mus musculus, no AGP): 5% | inhibition at 1 µM [1]: 54%

IC50 (Mus musculus, L1210, no AGP): 980 nM | IC50 (no AGP): 840 nM
SMILES: COc1ccc(CN(C)c2nc(N(CCO)CCO)nc3c(N(C)Cc4ccc(OC)cc4)nc(N(CCO)CCO)nc23)cc1 [NU3102, 2,6-bis-Diethanolamino-4,8-di-(N-[4-methoxybenzyl]-N-methyl)aminopyrimidopyrimidine]
% Inhibition of 3H-thymidine uptake, No AGP [5]: 20% | % Inhibition of 3H-thymidine uptake, No AGP (1 μM compound, no AGP, 1 µM): 57% | % Inhibition of 3H-thymidine uptake, No AGP (10 μM compound, no AGP): insoluble | inhibition at 0.1 µM (Mus musculus, no AGP): 23% | inhibition at 1 µM [1]: 51%

IC50 (Mus musculus, L1210, no AGP): ~300 nM
SMILES: COc1ccc(CNc2nc(OCC(C)O)nc3c(NCc4ccc(OC)cc4)nc(OCC(C)O)nc23)cc1 (stereo not drawn) [NU3087, 2,6-Di(2'-hydroxypropoxy)-4,8-bis(4'-methoxybenzylamino)pyrimidopyrimidine]
inhibition at 0.25 µM (Mus musculus, +0.125 mg/ml AGP vs no AGP, read-out: % Reduction (of inhibition by AGP)): 0% | inhibition at 0.25 µM (Mus musculus, +0.125 mg/ml AGP, read-out: % Inhibition of 3H-thymidine uptake, +0.125 mg/ml AGP): 20 ± 2% | inhibition at 0.25 µM [1]: 17% | inhibition at 1 µM [1]: 68 ± 14% | Effect of AGP on the inhibition of thymidine uptake: no significant reduction

The next lines start with the compound.

SMILES: OCCCOc1nc(N2CCCCC2)c2nc(OCCCO)nc(N3CCCCC3)c2n1 [NU3085, 2,6-Di(3'-hydroxypropoxy)-4,8-dipiperidinopyrimidopyrimidine]
% Inhibition of 3H-thymidine uptake, No AGP (10 μM compound, no AGP, 10 µM): 100% and 76% | inhibition at 1 µM [1]: 35 ± 5% | IC50 (Mus musculus, L1210, no AGP): 2360 nM

SMILES: CC(C)CCOc1nc(N2CCCCC2)c2nc(OCCC(C)C)nc(N3CCCCC3)c2n1 [NU3070, 2,6-Di-(3'-methylbutoxy)-4,8-dipiperidinopyrimidopyrimidine]
% Inhibition of 3H-thymidine uptake, No AGP (5% DMSO) (10 μM compound, no AGP, 5% DMSO, 10 µM): 51% | inhibition at 10 µM [2]: 46%

SMILES: CC(=O)COc1nc(N2CCCCC2)c2nc(OCC(C)=O)nc(N3CCCCC3)c2n1 [NU3066, 2,6-Di(-2-oxopropoxy)-4,8-dipiperidinopyrimidopyrimidine]
inhibition at 10 µM [2]: 58 ± 3%

SMILES: COCCOc1nc(N2CCCCC2)c2nc(OCCOC)nc(N3CCCCC3)c2n1 [NU3093, 2,6-Di(-2'-methoxyethoxy)-4,8-dipiperidinopyrimidopyrimidine]
% Inhibition of 3H-thymidine uptake, No AGP (10 μM compound, no AGP, 10 µM): 68% | inhibition at 1 µM [1]: 20 ± 6% | inhibition at 10 µM [1]: 63% | IC50 (Mus musculus, L1210, no AGP): 4600 nM

SMILES: COCCOc1nc(N(Cc2ccccc2)Cc2ccccc2)c2nc(OCCOC)nc(N(Cc3ccccc3)Cc3ccccc3)c2n1 [NU3094, 2,6-di(-2-methoxyethoxy)-4,8-bis(dibenzylamino) pyrimidopyrimidine]
inhibition at 1 µM [1]: 9 ± 10% | inhibition at 10 µM [1]: 15 ± 4%

SMILES: CCCOc1nc(N(C)Cc2ccccc2)c2nc(OCCC)nc(N(C)Cc3ccccc3)c2n1 [NU3091, 2,6-Di(n)propoxy-4,8-di[(N-benzylmethyl)amino]-pyrimidopyrimidine]
% Inhibition of 3H-thymidine uptake, No AGP (1 μM compound, no AGP): Inactive | inhibition at 10 µM [1]: 8.2 ± 1.1%

SMILES: COCC(C)Oc1nc(N2CCCCC2)c2nc(OC(C)COC)nc(N3CCCCC3)c2n1 (stereo not drawn) [NU3074, 2,6-Di(1'-methoxy-2'-methyl)ethoxy-4,8-dipiperidinopyrimidopyrimidine]
inhibition at 10 µM [1]: 62 ± 10% | inhibition at 100 µM [1]: 96 ± 7%

SMILES: OCCN(CCO)c1nc(NCc2ccc(C(F)(F)F)cc2)c2nc(N(CCO)CCO)nc(NCc3ccc(C(F)(F)F)cc3)c2n1 [NU3079, 2,6-bis(Diethanolamino)-4,8-di[(4'-trifluoromethylbenzyl)amino]pyrimido pyrimidine]
inhibition at 1 µM [1]: 32 ± 11% | inhibition at 10 µM [1]: 60 ± 7%

SMILES: CN(Cc1ccccc1)c1nc(OCCO)nc2c(N(C)Cc3ccccc3)nc(OCCO)nc12 [NU3098, 2,6-di(-2-hydroxyethoxy)-4,8-di(N-methylbenzylamino)pyrimidopyrimidine]
% Inhibition of 3H-thymidine uptake, No AGP (10 μM compound, no AGP, 10 µM): 87 ± 11% | inhibition at 1 µM [1]: 44% | IC50 (no AGP): 1870 nM

SMILES: CCCOc1nc(N2CCCCC2)c2nc(OCCC)nc(N3CCCCC3)c2n1 [NU3064, 2,6-Di(n)propoxy-4,8-dipiperidinopyrimidopyrimidine]
inhibition at 10 µM [1]: 37 ± 11% | inhibition at 100 µM [1]: 60 ± 9% | IC50 (Mus musculus, L1210, no AGP): 52000 nM

SMILES: OCCNc1nc(NCc2ccccc2)c2nc(NCCO)nc(NCc3ccccc3)c2n1 [NU3101, 2,6-Di-(2-hydroxyethylamino)-4,8-dibenzylaminopyrimidopyrimidine]
inhibition at 0.1 µM (Mus musculus, no AGP): 2% | inhibition at 1 µM [1]: 58%

SMILES: CN(Cc1ccccc1)c1nc(OCCO)nc2c(N(C)Cc3ccccc3)nc(OCCO)nc12 [NU3103, 2,6-Di-(2-hydroxyethoxy)-4,8-di-(N-benzyl-N-methyl)aminopyrimidopyrimidine]
% Inhibition of 3H-thymidine uptake, No AGP [5]: 18% | % Inhibition of 3H-thymidine uptake, No AGP (1 μM compound, no AGP, 1 µM): 50% and 60% | % Inhibition of 3H-thymidine uptake, No AGP (10 μM compound, no AGP, 10 µM): 84% | % Inhibition of 3H-thymidine uptake, +5 mg/ml AGP [6]: 21% and 23% | inhibition at 0.1 µM (Mus musculus, no AGP): 12% | inhibition at 10 µM [1]: 90% | IC50 (no AGP): 1010 nM and 800 nM

SMILES: COc1ccc(CN(C)c2nc(OCCCO)nc3c(N(C)Cc4ccc(OC)c(OC)c4)nc(OCCCO)nc23)cc1OC [NU3096, 2,6-di(-3-hydroxypropoxy)-4,8-bis[(-3,4-dimethoxybenzyl)-N-methylamino]pyrimidopyrimidine]
inhibition at 1 µM [1]: 54 ± 2% | IC50 (Mus musculus, L1210, no AGP): 750 nM
